From patent publication US12102685B2, “Immodulator peptides covalently modified with small molecules” (priority 2020, dated 2024)
Peptide text beside a SMILES is read from it.

What was measured:
[1] = FITC-PI(4,5)P2 binding at pH5.2 with metals and cold PPI (x9D)
Description: To a streptavidin-coated 96-well plate, 400 ng peptide IM3 or IM5 were bound per well. Each well received 100 uL of sodium acetate buffer pH5.2 containing 500 uM EDTA, Calcium Chloride, Zinc Chloride or Ferric Chloride. Each well additionally contained 50 ng FITC-PI(4,5)P2 plus 2 ug of either cold PI(3,4)P2, PI(4,5)P2, PI(3,5)P2 or buffer. All assays were done in sextuplicate. After incubation at room temperature for 60 mins, wells were washed and counted in a fluorometer set at FITC excitation/emmission wavelengths.

[2] = molecular target: T1, DNA-binding domain (DBD) of RXR-alpha (Homo sapiens, UniProt P19793); experiment: Binding to RXRa-DBD with or without ferric iron (x3B)
T1 construct: purchased Abcam, Cambridge, MA
T1 sequence (P19793 111-228): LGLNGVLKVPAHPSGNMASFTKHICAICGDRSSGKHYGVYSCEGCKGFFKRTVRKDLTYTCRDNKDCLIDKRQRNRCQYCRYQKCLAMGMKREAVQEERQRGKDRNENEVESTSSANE
Description: Experiment x3B. Binding of immodulator peptides to DNA-binding domain (DBD) of RXR-alpha, with or without ferric iron. 100 ng/well recombinant RXRa-DBD (Abcam, Cambridge, MA) was adsorbed to wells of a 96-well plate for 60 minutes at RT, then blocked with 200 uL 1% BSA in PBS buffer overnight. Plate was washed and 800 ng/well Streptavidin-Alexa 488 conjugate (SA488)-labelled IM peptide was added, with or without ferric chloride (5 uM) or 5-fold excess RXRa-DBD. The plate was incubated for 2 hours at room temperature, washed and counted in a standard fluorometer (excitation/emission 485/525 nm).

[3] = molecular target: T2, full-length huNur77 (Homo sapiens, UniProt P22736); experiment: Binding to full-length huNur77 (x3C); conditions: 333 ng/well labelled peptide
T2 construct: purchased Abcam, Cambridge, MA
Description: 400 ng/well recombinant Nur77 (Abcam, Cambridge, MA) was adsorbed to wells of a 96-well plate for 90 minutes at RT, then blocked with 200 uL 1% BSA in PBS buffer overnight. Plate was washed and 333 ng/well Streptavidin-Alexa 488 conjugate (SA488)-labelled IM3, IM4 or no peptide was added. The plate was incubated for 60 min at room temperature, washed and counted in a standard fluorometer (excitation/emission 485/525 nm). Background (buffer alone) was subtracted.

[4] = tested on: COL1 in HFF-1 dermal fibroblasts; experiment: Collagen-1 ELISA in HFF-1 dermal fibroblasts (x11A); assay type: cell-based; conditions: peptide 2 uM, 72 hour; control (buffer) = 100
[5] = Competition binding assay to metal-charged NTA-coated plates (x2B b)
Description: NTA-metal-affinity fluorescence assay was performed using 96-well NTA-metal-coated plates readily available from commercial sources such as Qiagen (Germantown, MD). NTA was charged with ferrous or ferric iron, zinc, copper, calcium, vanadium, ruthenium, cobalt, titanium, manganese or other metals. 400 ng of FITC-labeled immodulator peptide (or biotinylated immodulator peptide complexed to Alexa-488-labeled streptavidin) in PBS buffer was added per plate. After incubation at room temperature for 60 minutes, excess peptide was washed off and peptide was detected by measuring fluorescence (excitation 490 nm, emmission 525 nm) in a fluorometer. • (a) Using FITC-labeled IM3 peptide (1 ug/well) in the fluorescent binding assay: • EDTA-treated control: 2,251±1,186 • Ferrous iron: 170,441±11,264 (p<0.001)* • Copper: 13,644±5566 (p<0.05)* • Calcium: 48,822±11,990 (p<0.01)* • *p values are relative to EDTA-treated control • (b) Competition binding assay to ferrous iron, calcium, copper and zinc-charged NTA-coated plates using FITC-labeled IM3 peptide (0.5 uM) and 8× (4 uM) unlabelled competitor peptides IM3N1, IM3N2 (*all comparisons to PBS control are p<0.01); # fluorescent value of binding to […] was set at 100.

T2 sequence (P22736 whole entry): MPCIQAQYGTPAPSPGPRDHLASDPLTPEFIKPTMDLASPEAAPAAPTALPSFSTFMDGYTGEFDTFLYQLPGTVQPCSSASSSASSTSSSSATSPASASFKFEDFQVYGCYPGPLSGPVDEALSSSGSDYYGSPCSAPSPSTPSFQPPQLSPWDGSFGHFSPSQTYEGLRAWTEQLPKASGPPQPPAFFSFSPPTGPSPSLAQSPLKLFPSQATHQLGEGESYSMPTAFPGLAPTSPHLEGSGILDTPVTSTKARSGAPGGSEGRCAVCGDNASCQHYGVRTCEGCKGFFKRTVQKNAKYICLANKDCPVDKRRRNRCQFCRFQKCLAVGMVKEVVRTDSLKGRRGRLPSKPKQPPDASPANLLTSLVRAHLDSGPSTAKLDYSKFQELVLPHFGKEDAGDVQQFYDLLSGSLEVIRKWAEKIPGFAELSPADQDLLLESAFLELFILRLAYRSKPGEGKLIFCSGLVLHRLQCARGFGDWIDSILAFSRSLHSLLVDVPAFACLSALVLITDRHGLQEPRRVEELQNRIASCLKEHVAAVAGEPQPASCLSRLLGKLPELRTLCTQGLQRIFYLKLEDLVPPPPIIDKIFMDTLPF

N=C(N)NCCC[C@H](NC(=O)CNC(=O)[C@H](CCCCN)NC(=O)[C@H](CO)NC(=O)[C@@H]1CCCN1C(=O)[C@H](CCCNC(=N)N)NC(=O)[C@H](CS)NC(=O)[C@H](CCC(N)=O)NC(=O)[C@H](CCCCN)NC(=O)[C@H](CCCCN)NC(=O)[C@H](CCCCN)NC(=O)[C@H](Cc1ccc(O)cc1)NC(=O)[C@H](Cc1ccccc1)NC(=O)CNC(=O)[C@H](CCCCN)NC(=O)[C@@H](N)CCCCN)C(=O)N[C@@H](CCCCN)C(=O)N[C@@H](CCCNC(=N)N)C(=O)NCC(=O)N[C@@H](Cc1ccccc1)C(=O)N[C@@H](CS)C(=O)N[C@@H](Cc1c[nH]c2ccccc12)C(=O)O [IM3] (H-KKGFYKKKQCRPSKGRKRGFCW-OH; N-terminus and C-terminus assumed)
fluorescence, FITC-PI(4,5)P2 bound ([1]; Buffer, Calcium): 142 ± 29 | fluorescence, FITC-PI(4,5)P2 bound ([1]; Buffer, EDTA): 30 ± 22 | fluorescence, FITC-PI(4,5)P2 bound ([1]; Buffer, Ferric Iron): 772 ± 168 | fluorescence, FITC-PI(4,5)P2 bound ([1]; Buffer, Zinc): 138 ± 388 | fluorescence, FITC-PI(4,5)P2 bound ([1]; Cold PI(3,4)P2, Calcium): 48 ± 61 | fluorescence, FITC-PI(4,5)P2 bound ([1]; Cold PI(3,4)P2, EDTA): 26 ± 25 | fluorescence, FITC-PI(4,5)P2 bound ([1]; Cold PI(3,4)P2, Ferric Iron): 2,162 ± 269 | fluorescence, FITC-PI(4,5)P2 bound ([1]; Cold PI(3,4)P2, Zinc): 65 ± 16 | fluorescence, FITC-PI(4,5)P2 bound ([1]; Cold PI(3,5)P2, Calcium): 88 ± 22 | fluorescence, FITC-PI(4,5)P2 bound ([1]; Cold PI(3,5)P2, EDTA): 63 ± 26 | fluorescence, FITC-PI(4,5)P2 bound ([1]; Cold PI(3,5)P2, Ferric Iron): 2,036 ± 303 | fluorescence, FITC-PI(4,5)P2 bound ([1]; Cold PI(3,5)P2, Zinc): 118 ± 43 | fluorescence, FITC-PI(4,5)P2 bound ([1]; Cold PI(4,5)P2, Calcium): 32 ± 23 | fluorescence, FITC-PI(4,5)P2 bound ([1]; Cold PI(4,5)P2, EDTA): 10 ± 16 | fluorescence, FITC-PI(4,5)P2 bound ([1]; Cold PI(4,5)P2, Ferric Iron): 1,464 ± 320 | fluorescence, FITC-PI(4,5)P2 bound ([1]; Cold PI(4,5)P2, Zinc): 21 ± 22 | fluorescence ([2]; 100 ng/well RXRa-DBD, no FeCl3, no excess RXRa-DBD): 687.3 ± 55.4 | fluorescence ([2]; FeCl3 5 uM, 5X excess RXRa-DBD): 837.0 ± 30.5 | fluorescence ([2]; FeCl3 5 uM, no excess RXRa-DBD): 1161.3 ± 78.5 | fluorescence ([3]; Nur77 400 ng/well): 488 ± 38 | fluorescence ([3]; no Nur77 adsorbed): 59 ± 17 | COL1 immunoreactivity in supernatant [4]: 101 | FITC-IM3 fluorescence, no competitor (PBS) ([5]; Calcium, set at 100): 100.0 ± 1.9 | FITC-IM3 fluorescence, no competitor (PBS) ([5]; Copper, calcium = 100): 53.0 ± 0.6 | FITC-IM3 fluorescence, no competitor (PBS) ([5]; Ferrous iron, calcium = 100): 85.6 ± 5.8 | FITC-IM3 fluorescence, no competitor (PBS) ([5]; Zinc, calcium = 100): 85.9 ± 5.5
